Experimental data taken from ChEMBL document CHEMBL3045401, “(Naphthalen-1-yloxy)-acetic acid benzylidene/(1-phenyl-ethylidene)-hydrazide derivatives: synthesis, antimicrobial evaluation, and QSAR studies” (Med Chem Res, 2012).
Values after ≈ are worked out from the molar mass of the structure shown.

Columns and labels:
[1] = Octanol-water partition coefficient, log P of the compound; assay type: physicochemical
Aspergillus niger = assay: Antimicrobial activity against Aspergillus niger after 7 days by serial dilution method; assay type: functional
Candida albicans = assay: Antimicrobial activity against Candida albicans after 2 days by serial dilution method; assay type: functional
Escherichia coli = assay: Antimicrobial activity against Escherichia coli after 24 hr by serial dilution method; assay type: functional
Staphylococcus aureus = assay: Antimicrobial activity against Staphylococcus aureus after 24 hr by serial dilution method; assay type: functional
Bacillus subtilis = assay: Antimicrobial activity against Bacillus subtilis after 24 hr by serial dilution method; assay type: functional
[2] = Cytotoxicity against HEL assessed as minimum concentration required to cause morphological changes; assay type: cell-based; details: human, HEL cells
Human betaherpesvirus 5 [3] = assay: Antiviral activity against Human herpesvirus 5 Davis infected human HEL cells assessed as reduction in the virus plaque formation; assay type: functional, organism-based; details: Human betaherpesvirus 5, Davis
Human betaherpesvirus 5 [4] = assay: Antiviral activity against Human herpesvirus 5 strain AD169 infected human HEL cells assessed as reduction in the virus plaque formation; assay type: functional, organism-based; details: Human betaherpesvirus 5, AD169, HEL
[5] = Cytotoxicity against HEL; assay type: cell-based; details: human, HEL cells
Human alphaherpesvirus 3 [6] = assay: Antiviral activity against thymidine kinase-deficient Human herpesvirus 3 infected in HEL cells assessed as inhibition of viral plaque formation; assay type: functional, organism-based; details: Human alphaherpesvirus 3, HEL
Human alphaherpesvirus 3 [7] = assay: Antiviral activity against thymidine kinase-positive Human herpesvirus 3 infected in HEL cells assessed as inhibition of viral plaque formation; assay type: functional, organism-based; details: Human alphaherpesvirus 3, HEL
[8] = Cytotoxicity against Homo sapiens (human) MT4 cells after 4 days by MTT assay; assay type: cell-based
[9] = tested on: Human immunodeficiency virus 2; assay: Antiviral activity against Human immunodeficiency virus type 2 (ISOLATE ROD) infected human MT4 cells assessed as inhibition of virus-induced cytopathic effect after 4 days by MTT assay; assay type: functional, organism-based; details: Human immunodeficiency virus 2, ISOLATE ROD, MT4, 96 h
[10] = tested on: Human immunodeficiency virus 1; assay: Antiviral activity against Human immunodeficiency virus 1 IIIB infected human MT4 cells assessed as inhibition of virus-induced cytopathic effect after 4 days by MTT assay; assay type: functional, organism-based; details: MT4, 96 h

| SMILES | logP [1] | -logMIC (Aspergillus niger) | -logMIC (Candida albicans) | -logMIC (Escherichia coli) | -logMIC (Staphylococcus aureus) | -logMIC (Bacillus subtilis) | MCC [2] | EC50 (Human betaherpesvirus 5 [3]) | EC50 (Human betaherpesvirus 5 [4]) | CC50 [5] | EC50 (Human alphaherpesvirus 3 [6]) | EC50 (Human alphaherpesvirus 3 [7]) | CC50 at 96 h [8] | EC50 [9] | EC50 [10] |
| --- | --- | --- | --- | --- | --- | --- | --- | --- | --- | --- | --- | --- | --- | --- | --- |
| O=C(COc1cccc2ccccc12)N/N=C/c1ccc(F)cc1 | 4.16 | 0.81 | 0.81 | 1.41 | 1.41 | 1.11 | 100 µg/mL | > 20 µg/mL | > 20 µg/mL | 71.6 µg/mL (≈ 222 µM) | > 20 µg/mL | > 20 µg/mL | 65 µg/mL (≈ 202 µM) | > 65 µg/mL | > 65 µg/mL |
| COc1ccc(/C=N/NC(=O)COc2cccc3ccccc23)cc1OC | 3.51 | 1.46 | 1.46 | 1.46 | 1.46 | 1.16 | ≥ 20 µg/mL | > 20 µg/mL | > 4 µg/mL | 52.6 µg/mL (≈ 144 µM) | > 20 µg/mL | > 4 µg/mL | 14.7 µg/mL (≈ 40.2 µM) | > 14.6 µg/mL | > 14.6 µg/mL |
| COc1ccc(/C=N/NC(=O)COc2cccc3ccccc23)cc1 | 3.77 | 0.82 | 0.82 | 0.82 | 0.82 | 0.82 | 20 µg/mL | > 4 µg/mL | > 4 µg/mL | 100 µg/mL (≈ 299 µM) | > 4 µg/mL | > 4 µg/mL | 76.9 µg/mL (≈ 230 µM) | > 76.9 µg/mL | > 76.9 µg/mL |
| O=C(COc1cccc2ccccc12)N/N=C/c1c(O)ccc2ccccc12 | 4.74 | 0.87 | 0.87 | 0.87 | 0.87 | 0.57 | 4 µg/mL | > 0.8 µg/mL | > 0.8 µg/mL | 1.94 µg/mL (≈ 5.24 µM) | > 0.8 µg/mL | > 0.8 µg/mL | 2.12 µg/mL (≈ 5.72 µM) | > 2.12 µg/mL | > 2.12 µg/mL |
| C/C(=N\NC(=O)COc1cccc2ccccc12)c1ccccc1O | 3.08 | 0.82 | 0.82 | 1.43 | 1.13 | 0.82 | 20 µg/mL | > 4 µg/mL | > 4 µg/mL | 4 µg/mL (≈ 12 µM) | 7.9 µg/mL (≈ 23.6 µM) | 7 µg/mL (≈ 20.9 µM) | 11.2 µg/mL (≈ 33.6 µM) | > 11.2 µg/mL | > 11.2 µg/mL |
| COc1ccc(OC)c(/C=N/NC(=O)COc2cccc3ccccc23)c1 | 3.51 | 1.46 | 1.46 | 1.46 | 1.16 | 1.16 | ≥ 20 µg/mL | > 20 µg/mL | > 4 µg/mL | 56.9 µg/mL (≈ 156 µM) | > 20 µg/mL | > 4 µg/mL | 19.2 µg/mL (≈ 52.8 µM) | > 19.2 µg/mL | > 19.2 µg/mL |
| C/C(=N\NC(=O)COc1cccc2ccccc12)c1ccc(O)cc1O | 4.31 | 1.45 | 1.45 | 1.75 | 1.15 | 1.15 | > 100 µg/mL | > 100 µg/mL | > 100 µg/mL | 74.8 µg/mL (≈ 213 µM) | > 100 µg/mL | 58.5 µg/mL (≈ 167 µM) | 59.9 µg/mL (≈ 171 µM) | > 59.9 µg/mL | > 59.9 µg/mL |
| O=C(COc1cccc2ccccc12)N/N=C/c1c[nH]c2ccccc12 | 3.79 | 0.84 | 0.84 | 0.84 | 0.84 | 1.14 | 100 µg/mL | > 20 µg/mL | > 20 µg/mL | > 100 µg/mL | > 20 µg/mL | > 20 µg/mL | 51.5 µg/mL (≈ 150 µM) | > 51.5 µg/mL | > 51.5 µg/mL |
| O=C(COc1cccc2ccccc12)N/N=C/c1ccc(O)cc1 | 3.73 | 1.11 | 1.71 | 1.41 | 1.71 | 1.11 | 20 µg/mL | > 4 µg/mL | > 4 µg/mL | 60.6 µg/mL (≈ 189 µM) | 10.5 µg/mL (≈ 32.8 µM) | 9.6 µg/mL (≈ 30 µM) | 26.5 µg/mL (≈ 82.7 µM) | > 26.5 µg/mL | > 26.5 µg/mL |
| O=C(COc1cccc2ccccc12)N/N=C/c1ccc(Cl)cc1 | 4.54 | 0.53 | 0.53 | 0.53 | 1.43 | 0.53 | 100 µg/mL | > 20 µg/mL | > 20 µg/mL | 100 µg/mL (≈ 295 µM) | > 100 µg/mL | > 100 µg/mL | 87.6 µg/mL (≈ 259 µM) | > 87.6 µg/mL | > 87.6 µg/mL |
| C/C(=N\NC(=O)COc1cccc2ccccc12)c1ccc(O)cc1 | 4.44 | 1.43 | 1.43 | 1.43 | 1.13 | 1.13 | 20 µg/mL | > 4 µg/mL | > 4 µg/mL | 11.1 µg/mL (≈ 33.2 µM) | > 0.8 µg/mL | > 4 µg/mL | 68.8 µg/mL (≈ 206 µM) | > 68.8 µg/mL | > 68.8 µg/mL |
| O=C(COc1cccc2ccccc12)N/N=C/c1ccccc1Br | 4.81 | 0.88 | 0.88 | 0.88 | 1.19 | 0.88 | ≥ 20 µg/mL | > 20 µg/mL | > 4 µg/mL | 100 µg/mL (≈ 261 µM) | > 4 µg/mL | > 4 µg/mL | 11.4 µg/mL (≈ 29.8 µM) | > 11.4 µg/mL | > 11.4 µg/mL |
| Cc1cn([C@H]2C[C@H](N=[N+]=[N-])[C@@H](CO)O2)c(=O)[nH]c1=O [ZIDOVUDINE] |  |  |  |  |  |  |  |  |  |  |  |  | > 25 µg/mL |  | 0.002 µg/mL (≈ 0.00748 µM) |
| C/C(=N\NC(=O)COc1cccc2ccccc12)c1ccccc1 | 3.65 | 0.82 | 0.82 | 0.82 | 0.82 | 0.82 | 20 µg/mL | > 4 µg/mL | > 4 µg/mL | 20 µg/mL (≈ 62.8 µM) | > 20 µg/mL | > 20 µg/mL | 105 µg/mL (≈ 328 µM) | > 105 µg/mL | > 105 µg/mL |
| O=C(COc1cccc2ccccc12)N/N=C/c1ccccc1Cl | 4.54 | 0.83 | 0.83 | 0.83 | 1.13 | 0.83 | 100 µg/mL | > 20 µg/mL | > 20 µg/mL | 62.7 µg/mL (≈ 185 µM) | > 20 µg/mL | > 20 µg/mL | 56.2 µg/mL (≈ 166 µM) | > 56.2 µg/mL | > 56.2 µg/mL |
| O=C(COc1cccc2ccccc12)N/N=C/c1cccc(O)c1 | 3.73 | 1.41 | 1.41 | 1.41 | 1.71 | 1.11 | 100 µg/mL | > 20 µg/mL | > 20 µg/mL | 62.7 µg/mL (≈ 196 µM) | 16.2 µg/mL (≈ 50.6 µM) | 9.2 µg/mL (≈ 28.7 µM) | 32.6 µg/mL (≈ 102 µM) | > 32.6 µg/mL | > 32.6 µg/mL |
| O=C(COc1cccc2ccccc12)N/N=C/c1ccccc1[N+](=O)[O-] | 3.97 | 1.45 | 1.45 | 1.45 | 1.45 | 1.14 | 20 µg/mL | > 4 µg/mL | > 4 µg/mL | 100 µg/mL (≈ 286 µM) | > 4 µg/mL | > 4 µg/mL | 12.2 µg/mL (≈ 34.9 µM) | > 12.2 µg/mL | > 12.2 µg/mL |
| C/C(=N\NC(=O)COc1cccc2ccccc12)c1ccc(C#N)cc1Br | 3.61 | 1.53 | 2.13 | 1.53 | 1.23 | 1.23 | 20 µg/mL | > 4 µg/mL | > 4 µg/mL | 12.7 µg/mL (≈ 30.1 µM) | > 4 µg/mL | > 4 µg/mL | 12.1 µg/mL (≈ 28.7 µM) | > 12.1 µg/mL | > 12.1 µg/mL |
| NNC(=O)COc1ccc2ccccc2c1 [2-NAPHTHOXY ACETIC ACID HYDRAZIDE] |  | 0.64 | 0.64 | 0.94 | 0.94 | 0.64 |  |  |  |  |  |  |  |  |  |
| Nc1nc2c(ncn2COCCO)c(=O)[nH]1 [ACYCLOVIR] |  |  |  |  |  |  | > 100 µg/mL |  |  | 120 µg/mL (≈ 533 µM) | 23 µg/mL (≈ 102 µM) | 0.44 µg/mL (≈ 1.95 µM) |  |  |  |
| Nc1nc2c(ncn2COC(CO)CO)c(=O)[nH]1 [GANCICLOVIR] |  |  |  |  |  |  | > 100 µg/mL | 1.79 µg/mL (≈ 7.01 µM) | 2.68 µg/mL (≈ 10.5 µM) | 60.5 µg/mL (≈ 237 µM) |  |  |  |  |  |
| Nc1ccn(C[C@@H](CO)OCP(=O)(O)O)c(=O)n1.O.O [CIDOFOVIR] |  |  |  |  |  |  | > 100 µg/mL | 0.3 µg/mL | 0.8 µg/mL | 35.4 µg/mL |  |  |  |  |  |
| CCn1cc(C(=O)O)c(=O)c2cc(F)c(N3CCNCC3)cc21 [NORFLOXACIN] |  |  |  | 2.61 | 2.61 | 2.61 |  |  |  |  |  |  |  |  |  |
| O=c1[nH]c(=O)n([C@H]2C[C@H](O)[C@@H](CO)O2)cc1/C=C/Br [BRIVUDINE] |  |  |  |  |  |  | > 100 µg/mL |  |  | 173 µg/mL (≈ 519 µM) | 20 µg/mL (≈ 60 µM) | 0.0093 µg/mL (≈ 0.0279 µM) |  |  |  |
| Cc1ccnc2c1NC(=O)c1cccnc1N2C1CC1 [NEVIRAPINE] |  |  |  |  |  |  |  |  |  |  |  |  | > 4 µg/mL | > 4 µg/mL |  |
| OC(Cn1cncn1)(Cn1cncn1)c1ccc(F)cc1F [FLUCONAZOLE] |  | 2.64 | 2.64 |  |  |  |  |  |  |  |  |  |  |  |  |
